Like-named read-outs stand apart in the source and are kept apart here. Positions of bridges follow the written chain, without caps; N, C: chain ends. Non-standard residues stand in square brackets, D forms with d. Residues, ends and D or L forms follow the SMILES beside them. Cit = NC(=O)NCCC[C@H](N)C(=O)O; Orn = NCCC[C@H](N)C(=O)O; Thz = O=C(O)[C@@H]1CSCN1
Target: T1, human MC4R (Homo sapiens, UniProt P32245)
T1 construct: expressed in transfected cells
Assay: Functional cAMP assay (CisBio HTRF) in BHK cells expressing human MC4R
Assay type: cell-based
Settings: for MC1R/MC4R cAMP EC50 ratio: MC1R cAMP EC50 divided by MC4R cAMP EC50
Protocol: In order to assess the potency of the compounds on human MC1R and human MC4R cAMP signalling was measured.
cAMP induction was measured by c-AMPdynamic2 assay, HTRF 62AM4PEC system from CisBio for the human MC1R and human MC4R according to the protocol provided by the vendor. BHK cells expressing the human MC1 or MC4 receptor were generated by stable transfection with expression vectors encoding the cDNA of either MC1R or MC4R.
In details; 25 μl compound—or standard solution were added in the respective wells. Compound was reconstituted in buffer (DMEM w/o phenol red, 10 mM
Hepes, lx Glutamine, 0.1% OV-albumin1, 1 mM IBMX) and serially diluted starting at 2 μM, 10-fold seven times. Dilutions were carried out in the same aforementioned buffer to the desired working concentration ranges (2× higher than the final concentration). 25 μl cell solution was then added and allowed to incubate for 30 min while lightly shaking, at 25° C. […] The provided components for the assay were reconstituted according to the CisBio assay protocol “3.1 supplied reagents and preparation procedure” in MilliQ purification system H2O and diluted 1:20 in lysis buffer. 25 μl cAMP-d2 and 25 μl Cryptate conjugate were added to all wells.
Plates were centrifuged at 1500 rpm for 30 sec and incubated for 1 h, lightly shaking, at 25° C. in a hotel stacker. The plates were read on Mithras LB 940 provided by Berthold Technologies The data were analysed by non-linear regression analysis of binding curves, using the Windows™ program GraphPad™ Prism (GraphPad Software, USA).
The latter is used when no full curve can be obtained in the concentration ranges indicated above.

[1] = BHK cells expressing human MC4R, '>' = highest dose used with no response, read-out: MC4R cAMP EC50

T1 sequence (P32245 whole entry): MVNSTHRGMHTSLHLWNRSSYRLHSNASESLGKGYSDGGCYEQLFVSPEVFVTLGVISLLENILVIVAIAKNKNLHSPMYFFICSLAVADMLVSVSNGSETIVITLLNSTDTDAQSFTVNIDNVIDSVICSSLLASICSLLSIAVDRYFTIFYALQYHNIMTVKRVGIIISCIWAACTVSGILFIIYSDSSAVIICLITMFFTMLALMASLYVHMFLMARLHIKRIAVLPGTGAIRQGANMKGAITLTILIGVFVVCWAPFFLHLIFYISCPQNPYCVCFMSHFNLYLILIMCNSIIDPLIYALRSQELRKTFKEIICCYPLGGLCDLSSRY

Row | Compound | MC1R/MC4R cAMP EC50 ratio | EC50 [nM] | EC50 [1] [nM]
1 | C[C@@H]1NC(=O)[C@@H]2CSSC[C@H](NC(=O)[C@H](CCCNC(=N)N)NC(=O)[C@H](Cc3c[nH]c4ccccc34)NC(=O)[C@H](CCCNC(=N)N)NC(=O)[C@@H](Cc3ccccc3)NC(=O)[C@H](Cc3c[nH]cn3)NC1=O)C(=O)N[C@@H](C)C(=O)N[C@@H](Cc1c[nH]cn1)C(=O)N[C@H](Cc1ccccc1)C(=O)N[C@@H](CCCNC(=N)N)C(=O)N[C@@H](Cc1c[nH]c3ccccc13)C(=O)N[C@@H](CCCNC(=N)N)C(=O)N2 [Chem. 69, c[c[Cys-Ala-His-D-Phe-Arg-Trp-Arg- Cys]-Ala-His-D-Phe-Arg-Trp-Arg]] (cyclo(AH[dF]RWRCAH[dF]RWRC); disulfide 7-14) | 5 |  | 
2 | C[C@@H]1NC(=O)[C@@H]2CSSC[C@H](NC(=O)[C@H](CCCNC(=N)N)NC(=O)[C@H](CCCN)NC(=O)[C@H](CCC(=O)O)NC(=O)[C@H](CCCN)NC1=O)C(=O)N1CSC[C@H]1C(=O)N[C@@H](Cc1c[nH]cn1)C(=O)N[C@H](Cc1ccccc1)C(=O)N[C@@H](Cc1c[nH]cn1)C(=O)N[C@@H](Cc1c[nH]c3ccccc13)C(=O)N2 [Chem. 119, c[c[Cys-THAZ-His-D-Phe-His-Trp- Cys]-Ala-Orn-Glu-Orn-Arg]] (cyclo(A[Orn]E[Orn]RC[Thz]H[dF]HWC); disulfide 6-12) | 1660 | 0.06 | 
3 | N=C(N)NCCC[C@@H]1NC(=O)[C@H](CCCCN)NC(=O)[C@@H]2CSSC[C@H](NC1=O)C(=O)N1CSC[C@H]1C(=O)N[C@@H](Cc1c[nH]cn1)C(=O)N[C@H](Cc1ccccc1)C(=O)N[C@@H](Cc1c[nH]cn1)C(=O)N[C@@H](Cc1c[nH]c3ccccc13)C(=O)N2 [Chem. 118, c[c[Cys-THAZ-His-D-Phe-His-Trp- Cys]-Lys-Arg]] (cyclo(CKRC[Thz]H[dF]HW); disulfide 1-4) | 1240 |  | 
4 | NCCCC[C@@H]1NC(=O)[C@@H]2CSSC[C@H](NC(=O)[C@H](Cc3c[nH]c4ccccc34)NC(=O)[C@H](CCCNC(N)=O)NC(=O)[C@@H](Cc3ccccc3)NC(=O)[C@H](Cc3c[nH]cn3)NC1=O)C(=O)N[C@@H](CCCCN)C(=O)N[C@@H](Cc1c[nH]cn1)C(=O)N[C@H](Cc1ccccc1)C(=O)N[C@@H](CCCNC(N)=O)C(=O)N[C@@H](Cc1c[nH]c3ccccc13)C(=O)N2 [Chem. 55, c[c[Cys-Lys-His-D-Phe-Cit-Trp-Cys]- Lys-His-D-Phe-Cit-Trp]] (cyclo(CKH[dF][Cit]WCKH[dF][Cit]W); disulfide 1-7) | 41 |  | 0.1
5 | C[C@@H]1NC(=O)[C@H](C)NC(=O)[C@H](CCCN)NC(=O)[C@H](CCCCN)NC(=O)[C@@H]2CSSC[C@H](NC(=O)[C@H](Cc3c[nH]c4ccccc34)NC1=O)C(=O)N1CSC[C@H]1C(=O)N[C@@H](Cc1c[nH]cn1)C(=O)N[C@H](Cc1ccccc1)C(=O)N[C@@H](Cc1c[nH]cn1)C(=O)N[C@@H](Cc1c[nH]c3ccccc13)C(=O)N2 [Chem. 115, c[c[Cys-THAZ-His-D-Phe-His-Trp-C ys]-Lys-Orn-Ala-Ala-Trp]] (cyclo(AAWC[Thz]H[dF]HWCK[Orn]); disulfide 4-10) | 1340 | 0.1 | 
6 | N=C(N)NCCC[C@@H]1NC(=O)[C@@H](Cc2ccccc2)NC(=O)[C@H](Cc2c[nH]cn2)NC(=O)[C@H](CCC(=O)O)NC(=O)[C@@H]2CSSC[C@H](NC(=O)[C@H](Cc3c[nH]c4ccccc34)NC1=O)C(=O)N[C@@H](CCC(=O)O)C(=O)N[C@@H](Cc1c[nH]cn1)C(=O)N[C@H](Cc1ccccc1)C(=O)N[C@@H](CCCNC(=N)N)C(=O)N[C@@H](Cc1c[nH]c3ccccc13)C(=O)N2 [Chem. 51, c[c[Cys-Glu-His-D-Phe-Arg-Trp-Cys]- Glu-His-D-Phe-Arg-Trp]] (cyclo(CEH[dF]RWCEH[dF]RW); disulfide 1-7) | 13 |  | 0.2

— patent publication US20200223889A1, “Bicyclic Compounds Capable of Binding to Melanocortin 4 Receptor” (Novo Nordisk A/S, priority 2017, published 2020)
